Values joined by “and” are separate entries in the source; they are usually repeats but may differ in a detail not shown here. Identical values can stand only once. Like-named read-outs stand apart in the source and are kept apart here. Some results are limits rather than exact numbers.

Broadly, the inhibition is the share of the control response that was lost under treatment. In general, IC50 refers to the midpoint of a concentration-inhibition curve.

The target of one assay is Abl WT (Homo sapiens (Human), UniProt P00519). The assay is described as follows: Reaction Biology Corp. kinase assay, Abl WT. The class given is biochemical. As to conditions: compounds tested by Reaction Biology Corp.; for inhibition at 10 µM: read-out: % inhibition of kinase activity, Abl WT (category); for IC50: ATP at 10 μM, read-out: IC50 on kinase Abl WT (category). How it is done:
(§1) 4 compounds were tested for their capacity to inhibit various mutated kinases AbI (American company, Reaction Biology Corp.).

The next assay addresses Abl T315I (Homo sapiens (Human), UniProt P00519, T315I). In words: Reaction Biology Corp. kinase assay, mutated Abl T315I. As to conditions: Reaction Biology Corp.; for inhibition at 10 µM: read-out: % inhibition of kinase activity, Abl T315I (category); for IC50: ATP at 10 μM, read-out: IC50 on kinase Abl T315I (category). It is filed as biochemical. How it is done:
as §1

For assay [1], the system named is K562 cells expressing kinase Bcr-AbI. In words: Inhibition of cellular proliferation (MTT), K562 cells. The class given is cell-based, human. How it is done:
Cellular tests were carried out at the Montpellier Cancer Research Centre. The inhibition of proliferation by our compounds was analysed on 2 cell lines (U937 and K562) by calculating the IC50, testing 6 concentrations in triplicate for each of the compounds and for each line.
Cells in exponential phase were seeded in 96-well plates at a concentration of 10^4 cells/100 μL/well. The final concentrations of compound in the well in contact with the cells were 0.1; 0.3; 0.9; 3.3; 10; 30; 90 μM. […]

The target in the next assay is Src kinase (Homo sapiens (Human), UniProt P12931). The assay is described as follows: Reaction Biology Corp. kinase assay, Src. As to conditions: compounds tested by Reaction Biology Corp.; for IC50: IC50 on kinase Src (category), ATP at 10 μM; for inhibition at 10 µM: read-out: % inhibition of kinase activity, Src (category), 10 μM.
Src kinase, sequence (P12931 whole entry, looked up): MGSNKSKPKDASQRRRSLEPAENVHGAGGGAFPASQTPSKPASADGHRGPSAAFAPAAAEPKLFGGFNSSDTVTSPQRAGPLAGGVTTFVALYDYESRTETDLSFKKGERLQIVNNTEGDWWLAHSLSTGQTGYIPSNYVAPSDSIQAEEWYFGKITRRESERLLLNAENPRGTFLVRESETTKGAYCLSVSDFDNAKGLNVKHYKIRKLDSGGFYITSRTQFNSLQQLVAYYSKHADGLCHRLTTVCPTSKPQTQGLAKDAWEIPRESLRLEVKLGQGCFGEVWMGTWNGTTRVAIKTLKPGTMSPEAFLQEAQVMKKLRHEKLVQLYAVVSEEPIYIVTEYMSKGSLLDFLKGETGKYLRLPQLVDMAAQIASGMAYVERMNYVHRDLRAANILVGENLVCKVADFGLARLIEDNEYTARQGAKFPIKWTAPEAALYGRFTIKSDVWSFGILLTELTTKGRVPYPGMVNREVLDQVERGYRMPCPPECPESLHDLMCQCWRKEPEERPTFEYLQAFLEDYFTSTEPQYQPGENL
Where [2] appears, read: Homo sapiens, K562, 24 h, 24 h incubation, read-out: IC50 at 24 h on K562 (category).
Where [3] appears, read: Homo sapiens, K562, 72 h, read-out: IC50 at 72 h on K562 (category), 72 h incubation.
Where [4] appears, read: Homo sapiens, K562, incubation time not stated (24 h and/or 72 h), read-out: IC50 for the K562 Bcr-AbI kinase (category).

Take `COC(=O)c1cc2cc(NC(=O)c3c(Cl)cccc3Cl)cnc2[nH]1` [ND0072, Methyl 5-(2,6-dichlorobenzamido)-1H-pyrrolo[2,3-b]pyridine-2-carboxylate]: the inhibition at 10 µM is > 50% at Abl WT, < 10% at Abl T315I and > 50% at Src kinase. In addition, the IC50 at Abl WT is 1 to 100 nM; in assay [1] (setting [2]) it was > 10000 nM; in assay [1] (setting [3]) it was 10 to 1000 nM; at Src kinase, 1 to 100 nM.

Regarding `COC(=O)c1cc2cc(NC(=O)c3c(C)cccc3Cl)cnc2[nH]1` [ND0074, Methyl 5-(2-chloro-6-methylbenzamido)-1H-pyrrolo[2,3-b]pyridine-2-carboxylate], the IC50 was 1 to 100 nM at Abl WT; > 10000 nM in assay [1] (setting [2]); 10 to 1000 nM in assay [1] (setting [3]); > 10000 nM in assay [1] (incubation time not stated (24 h and/or 72 h), read-out: IC50 for the K562 Bcr-AbI kinase (category)); 1 to 100 nM on Src kinase. Also, the inhibition at 10 µM on Abl T315I is < 10%; on Src kinase it was > 50%.

`COC(=O)c1cc2cc(NC(=O)c3cccc(Br)c3)cnc2[nH]1` [ND0075, Methyl 5-(3-bromobenzamido)-1H-pyrrolo[2,3-b]pyridine-2-carboxylate]: the inhibition at 10 µM at Abl WT, at Abl T315I and on Src kinase was 10 to 50% throughout.

Take `COC(=O)c1cc2cc(NC(=O)c3ccccc3C)cnc2[nH]1` [ND0076, Methyl 5-(2-methylbenzamido)-1H-pyrrolo[2,3-b]pyridine-2-carboxylate]: the inhibition at 10 µM was > 50% on Abl WT, < 10% at Abl T315I and > 50% at Src kinase. For the same compound, the half-inhibitory concentration (IC50) was 100 to 10000 nM at Abl WT, 1000 to 10000 nM in assay [1] (setting [2]), 10 to 1000 nM in assay [1] (setting [3]) and 10 nM in assay [1] (setting [4]).

`COC(=O)c1cc2cc(NC(=O)c3ccccc3C(F)(F)F)cnc2[nH]1` [ND0077, Methyl 5-(2-(trifluoromethyl)benzamido)-1H-pyrrolo[2,3-b]pyridine-2-carboxylate]: the inhibition at 10 µM at Abl WT is > 50%; on Abl T315I it was < 10%; at Src kinase, > 50%. Further, the IC50 is 1 to 100 nM at Abl WT; 1 to 100 nM and 100 to 10000 nM on Src kinase.

In the case of `COC(=O)c1cc2cc(NC(=O)c3ccccc3OC(F)(F)F)cnc2[nH]1` [ND0078, Methyl 5-(2-(trifluoromethoxy)benzamido)-1H-pyrrolo[2,3-b]pyridine-2-carboxylate], the inhibition at 10 µM on Abl WT was 10 to 50%; on Abl T315I it was < 10%; on Src kinase, 10 to 50%.

For `COC(=O)c1cc2cc(NC(=O)c3cccs3)cnc2[nH]1` [ND0079, Methyl 5-(thiophene-2-carboxamido)-1H-pyrrolo[2,3-b]pyridine-2-carboxylate], the inhibition at 10 µM is 10 to 50% on Abl WT, < 10% on Abl T315I and 10 to 50% at Src kinase.

In the case of `COC(=O)c1cc2cc(NC(=O)c3ccc4[nH]ccc4c3)cnc2[nH]1` [ND0082], the values for the inhibition at 10 µM at Abl WT, at Abl T315I and at Src kinase were > 50%, < 10% and < 10%, respectively. Besides, at Abl WT, the IC50 fell in the range of 100 to 10000 nM.

Consider `COC(=O)c1cc2cc(NC(=O)c3cc(C)n[nH]3)cnc2[nH]1` [ND0085], for which the inhibition at 10 µM is > 50% on Abl WT, < 10% on Abl T315I and 10 to 50% on Src kinase. Moreover, the IC50 on Abl WT lay in the range of 100 to 10000 nM.

Take `COC(=O)c1cc2cc(NC(=O)c3cccc(S(=O)(=O)NCc4ccco4)c3)cnc2[nH]1` [ND0086]: the inhibition at 10 µM is 10 to 50% on Abl WT, < 10% on Abl T315I and < 10% on Src kinase.

For `COC(=O)c1cc2cc(NCc3c(Cl)cccc3Cl)cnc2[nH]1` [ND0087], the results for the inhibition at 10 µM on Abl WT, on Abl T315I and on Src kinase were > 50%, 10 to 50% and > 50%, respectively. Further, the IC50 was 1 to 100 nM at Abl WT; 1000 to 10000 nM in assay [1] (setting [2]); 10 to 1000 nM in assay [1] (setting [3]); 10 nM in assay [1] (setting [4]); 1 to 100 nM against Src kinase.

Take `COC(=O)c1cc2cc(NCc3ccccc3OC)cnc2[nH]1` [ND0088]: the inhibition at 10 µM at Abl WT is > 50%; at Abl T315I it was < 10%; at Src kinase, > 50%. For the same compound, the IC50 at Abl WT and at Src kinase was 100 to 10000 nM each time.

Take `COC(=O)c1cc2cc(NCc3c(C)cccc3Cl)cnc2[nH]1` [ND0089]: the inhibition at 10 µM at Abl WT was > 50%; on Abl T315I it was < 10%; at Src kinase it was > 50%. For the same compound, the 50% inhibitory concentration (IC50) is 1 to 100 nM on Abl WT, > 10000 nM in assay [1] (setting [2]), 10 to 1000 nM in assay [1] (setting [3]) and 1 to 100 nM against Src kinase.

As for `COC(=O)c1cc2cc(NCc3ccccc3C)cnc2[nH]1` [ND0090], the inhibition at 10 µM on Abl WT was > 50%; at Abl T315I, 10 to 50%; on Src kinase, > 50%. Besides, the concentration for half-maximal inhibition (IC50) is 1 to 100 nM on Abl WT; 1000 to 10000 nM in assay [1] (setting [2]); 10 to 1000 nM in assay [1] (setting [3]); 10 nM in assay [1] (setting [4]); 1 to 100 nM against Src kinase.

For `COC(=O)c1cc2cc(NCc3ccccc3C(F)(F)F)cnc2[nH]1` [ND0091], the inhibition at 10 µM is > 50% on Abl WT, < 10% on Abl T315I and > 50% on Src kinase. Besides, the concentration for half-maximal inhibition (IC50) at Abl WT and on Src kinase was 100 to 10000 nM each time.

As for `COC(=O)c1cc2cc(NCc3ccccc3OC(F)(F)F)cnc2[nH]1` [ND0092], the inhibition at 10 µM was 10 to 50% on Abl WT, < 10% at Abl T315I and < 10% on Src kinase.

With `COC(=O)c1cc2cc(NCc3cccs3)cnc2[nH]1` [ND0093], the inhibition at 10 µM on Abl WT was > 50%; on Abl T315I, 10 to 50%; at Src kinase it was > 50%. Also, the half-maximal inhibitory concentration (IC50) at Abl WT and on Src kinase was 100 to 10000 nM in each case.

For the compound `COC(=O)c1cc2cc(NCc3nccs3)cnc2[nH]1` [ND0094], the inhibition at 10 µM at Abl WT was > 50%; at Abl T315I, 10 to 50%; at Src kinase it was > 50%. For the same compound, the half-maximal inhibitory concentration (IC50) on Abl WT and against Src kinase was 100 to 10000 nM throughout.

In the case of `COC(=O)c1cc2cc(NCc3ncc[nH]3)cnc2[nH]1` [ND0095], the inhibition at 10 µM is 10 to 50% on Abl WT, < 10% on Abl T315I and 10 to 50% on Src kinase.

Take `COC(=O)c1cc2cc(NCc3ccc4[nH]ccc4c3)cnc2[nH]1` [ND0096]: the inhibition at 10 µM on Abl WT, at Abl T315I and on Src kinase was > 50% each time. Further, the half-inhibitory concentration (IC50) at Abl WT was 1 to 100 nM; at Abl T315I, 0.1 to 10 µM; in assay [1] (setting [2]), 1000 to 10000 nM; in assay [1] (setting [3]) it was 10 to 1000 nM; in assay [1] (setting [4]), 10 nM; on Src kinase, 100 to 10000 nM.

Take `COC(=O)c1cc2cc(NCc3cc[nH]n3)cnc2[nH]1` [ND0098]: the inhibition at 10 µM is > 50% at Abl WT, < 10% on Abl T315I and > 50% at Src kinase. For the same compound, the IC50 at Abl WT and against Src kinase was 100 to 10000 nM throughout.

Take `COC(=O)c1cc2cc(NCc3ccc(S(N)(=O)=O)cc3)cnc2[nH]1` [ND0101]: the inhibition at 10 µM was > 50% on Abl WT, < 10% on Abl T315I and 10 to 50% at Src kinase.

For the compound `COC(=O)c1cc2cc(Nc3cccc(I)c3)cnc2[nH]1` [ND0103], the inhibition at 10 µM at Abl WT was 10 to 50%; on Abl T315I it was < 10%; on Src kinase, 10 to 50%.

Turning to `COC(=O)c1cc2cc(Nc3ccc(I)cc3)cnc2[nH]1` [ND0108], the inhibition at 10 µM at Abl WT, on Abl T315I and at Src kinase was 10 to 50% throughout.

As for `COC(=O)c1cc2cc(NC(=O)c3cc(NC(=O)c4ccc(CN5CCN(C)CC5)cc4)ccc3C)cnc2[nH]1` [ND0117, methyl 5-(5-(4-((4-methylpiperazin-1-yl)methyl)benzamido)-2-methylbenzamido)-1H-pyrrolo[2,3-b]pyridine-2-carboxylate], the results for the inhibition at 10 µM on Abl WT, at Abl T315I and at Src kinase were > 50%, 10 to 50% and > 50%, respectively. Further, the IC50 at Abl WT is < 1 nM; in assay [1] (setting [2]), 10 nM; in assay [1] (setting [3]), < 10 nM; in assay [1] (setting [4]), 10 nM; against Src kinase, 1 to 100 nM.

Turning to `COC(=O)c1cc2cc(NCc3cc(NC(=O)c4ccc(CN5CCN(C)CC5)cc4)ccc3C)cnc2[nH]1` [ND0118, methyl 5-(5-(4-((4-methylpiperazin-1-yl)methyl)benzamido)-2-methyl-benzylamino)-1H-pyrrolo[2,3-b]pyridine-2-carboxylate], the inhibition at 10 µM at Abl WT, on Abl T315I and on Src kinase was > 50% each time. For the same compound, the concentration for half-maximal inhibition (IC50) on Abl WT is < 1 nM; on Abl T315I it was 0.1 to 10 µM; in assay [1] (setting [2]), 1000 to 10000 nM; in assay [1] (setting [3]), < 10 nM; against Src kinase, < 1 nM.

The record behind these values is US8580815B2, “Derivatives of azaindoles as inhibitors of protein kinases ABL and SRC” (Oribase Pharma, priority 2009, dated 2013).
